The structures appear in SMILES notation. Active and inactive are the calls of the source. The calls are words filed in the database; no cut-off is given here. Where only a bound is given, the exact number is not on record here.

For assay [1], the target named is Muscarinic acetylcholine receptor M1 (Homo sapiens) (UniProt P11229). The note with it: Compound concentration 10.0 uM.
For assay [2], the target named is Inhibitor of nuclear factor kappa-B kinase subunit beta (Homo sapiens) (UniProt O14920). As to conditions: Compound concentration 1000.0 nM.
In assay [3] the target is Macrophage migration inhibitory factor (Homo sapiens, UniProt P14174). Put plainly: Scintillation proximity assay (SPA) measurement of selective [3H]-BTZO-1 binding to hMIF-His. Background: SPA uses beads or plates that emit light when radiolabelled molecules are held near them.
In assay [4] the target is Mitogen-activated protein kinase kinase kinase 9 (Homo sapiens) (UniProt P80192). The note with it: Compound concentration 1000.0 nM.
Assay [5] has as its target Calcium-dependent protein kinase 1 (Plasmodium falciparum) (UniProt P62344). As to conditions: Compound concentration 1000.0 nM.
Assay [6] addresses 5-hydroxytryptamine receptor 6 (Homo sapiens) (UniProt P50406). The note with it: Compound concentration 10.0 uM.
The target in assay [7] is T1, Macrophage migration inhibitory factor (Homo sapiens) (UniProt P14174).
T1 sequence (whole entry): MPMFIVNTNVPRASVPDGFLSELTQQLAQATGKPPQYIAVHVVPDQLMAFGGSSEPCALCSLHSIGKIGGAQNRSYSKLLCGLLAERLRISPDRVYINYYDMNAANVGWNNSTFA
Kind of assay: Apoptosis inhibition.

Assay [8] deals with Cyclin-dependent kinase 8 (Homo sapiens, UniProt P49336). Put plainly: Inhibition of CDK8 at compound concentration of 10.0 uM using the ScanMax (DiscoverX).
The target of assay [9] is Dual specificity mitogen-activated protein kinase kinase 1 (Homo sapiens) (UniProt Q02750). As to conditions: Compound concentration 1000.0 nM.
Assay [10] deals with Sigma intracellular receptor 2 (Homo sapiens) (UniProt Q5BJF2). The note with it: Compound concentration 10.0 uM.
Assay [11] deals with Sigma non-opioid intracellular receptor 1 (Homo sapiens) (UniProt Q99720). The note with it: Compound concentration 10.0 uM.
The target of assay [12] is Serine/threonine-protein kinase WNK4 (Homo sapiens) (UniProt Q96J92). As to conditions: Compound concentration 1000.0 nM.
Assay [13] concerns the target GABA-A receptor; anion channel. Put plainly: GPCRScan assay: inhibition of GABAA/BZP. Format: protein-complex assay, Rattus norvegicus. Also noted: radioligand conc. used [nm] 0.6 – 4.0, parental cells brain tissue.
Assay [14] addresses 1-phosphatidylinositol 3-phosphate 5-kinase (Homo sapiens) (UniProt Q9Y2I7). As to conditions: Compound concentration 1000.0 nM.
Assay [15] deals with Macrophage migration inhibitory factor (Rattus norvegicus, UniProt P30904). Put plainly: Scintillation proximity assay (SPA) measurement of selective [3H]-BTZO-1 binding to rMIF-His.
The target in assay [16] is GABA-A receptor; anion channel (Rattus norvegicus) (UniProt O09028+P15431+P18506+P18508+P19969+P20236+P23574+P23576+P28471+P28473+P30191+P62813+P63079+P63138+Q91ZM7+Q9ES14). As to conditions: Compound concentration 10.0 uM.
Assay [17] addresses Muscarinic acetylcholine receptor M4 (Homo sapiens) (UniProt P08173). The note with it: Compound concentration 10.0 uM.
Assay [18] concerns the target 5-hydroxytryptamine receptor 7 (Homo sapiens) (UniProt P34969). The note with it: Compound concentration 10.0 uM.
The target of assay [19] is 5-hydroxytryptamine receptor 1D (Homo sapiens) (UniProt P28221). The note with it: Compound concentration 10.0 uM.
Assay [20] deals with Histamine H1 receptor (Homo sapiens) (UniProt P35367). As to conditions: Compound concentration 10.0 uM.
Assay [21] concerns the target 5-hydroxytryptamine receptor 5A (Homo sapiens) (UniProt P47898). The note with it: Compound concentration 10.0 uM.
Assay [22] addresses Death-associated protein kinase 3 (Homo sapiens, UniProt O43293). Put plainly: Inhibition of DAPK3 at compound concentration of 10.0 uM using the ScanMax (DiscoverX).
The target of assay [23] is G protein-coupled receptor kinase 3 (Homo sapiens, UniProt P35626). Kind of assay: Inhibition of GRK3 at compound concentration of 10.0 uM using the ScanMax (DiscoverX).
Assay [24] concerns the target Alpha-1A adrenergic receptor (Homo sapiens) (UniProt P35348). As to conditions: Compound concentration 10.0 uM.

Sequence of Serine/threonine-protein kinase WNK4 (Homo sapiens) (Q96J92 whole entry): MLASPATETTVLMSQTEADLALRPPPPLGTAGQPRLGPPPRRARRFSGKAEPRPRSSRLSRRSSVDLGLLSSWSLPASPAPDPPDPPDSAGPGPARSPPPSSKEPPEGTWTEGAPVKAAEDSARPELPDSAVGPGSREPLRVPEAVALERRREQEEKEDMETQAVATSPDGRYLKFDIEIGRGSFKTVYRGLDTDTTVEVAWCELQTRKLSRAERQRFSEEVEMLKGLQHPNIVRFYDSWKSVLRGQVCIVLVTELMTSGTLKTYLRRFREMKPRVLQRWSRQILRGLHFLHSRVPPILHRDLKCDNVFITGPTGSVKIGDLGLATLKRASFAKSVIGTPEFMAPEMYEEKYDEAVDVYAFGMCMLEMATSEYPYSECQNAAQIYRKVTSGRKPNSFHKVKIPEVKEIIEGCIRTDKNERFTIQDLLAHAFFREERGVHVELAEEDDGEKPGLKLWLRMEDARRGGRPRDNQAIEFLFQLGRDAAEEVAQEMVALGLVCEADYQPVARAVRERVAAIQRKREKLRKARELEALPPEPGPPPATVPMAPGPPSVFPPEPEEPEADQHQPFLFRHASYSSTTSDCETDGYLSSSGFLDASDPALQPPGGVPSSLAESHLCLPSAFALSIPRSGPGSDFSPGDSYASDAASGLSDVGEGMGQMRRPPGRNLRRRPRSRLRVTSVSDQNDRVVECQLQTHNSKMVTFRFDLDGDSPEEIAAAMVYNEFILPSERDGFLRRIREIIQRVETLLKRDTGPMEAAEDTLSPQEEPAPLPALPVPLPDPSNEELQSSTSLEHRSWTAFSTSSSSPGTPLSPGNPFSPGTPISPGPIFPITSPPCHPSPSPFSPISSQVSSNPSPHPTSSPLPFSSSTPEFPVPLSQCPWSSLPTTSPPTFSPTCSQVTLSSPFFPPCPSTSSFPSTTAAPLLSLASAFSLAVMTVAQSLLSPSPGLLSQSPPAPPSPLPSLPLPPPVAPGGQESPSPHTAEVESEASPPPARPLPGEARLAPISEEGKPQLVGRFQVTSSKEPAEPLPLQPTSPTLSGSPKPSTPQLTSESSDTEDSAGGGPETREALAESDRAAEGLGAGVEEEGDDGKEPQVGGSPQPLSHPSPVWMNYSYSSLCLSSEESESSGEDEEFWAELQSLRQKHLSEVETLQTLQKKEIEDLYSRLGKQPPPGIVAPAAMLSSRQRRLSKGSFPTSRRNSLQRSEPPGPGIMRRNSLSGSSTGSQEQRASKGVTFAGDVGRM
Sequence of Dual specificity mitogen-activated protein kinase kinase 1 (Homo sapiens) (Q02750 whole entry): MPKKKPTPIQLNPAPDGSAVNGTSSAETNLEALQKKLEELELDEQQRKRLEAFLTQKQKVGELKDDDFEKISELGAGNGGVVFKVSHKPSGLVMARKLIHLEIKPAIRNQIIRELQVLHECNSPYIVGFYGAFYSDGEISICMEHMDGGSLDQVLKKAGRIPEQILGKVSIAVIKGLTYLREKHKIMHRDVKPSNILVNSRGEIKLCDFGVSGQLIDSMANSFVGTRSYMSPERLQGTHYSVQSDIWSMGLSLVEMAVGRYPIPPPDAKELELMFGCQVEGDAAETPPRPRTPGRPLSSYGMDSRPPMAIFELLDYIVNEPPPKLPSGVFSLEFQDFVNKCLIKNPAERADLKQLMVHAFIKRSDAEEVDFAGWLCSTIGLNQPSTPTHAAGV
Sequence of Calcium-dependent protein kinase 1 (Plasmodium falciparum) (P62344 2-524 limits assumed): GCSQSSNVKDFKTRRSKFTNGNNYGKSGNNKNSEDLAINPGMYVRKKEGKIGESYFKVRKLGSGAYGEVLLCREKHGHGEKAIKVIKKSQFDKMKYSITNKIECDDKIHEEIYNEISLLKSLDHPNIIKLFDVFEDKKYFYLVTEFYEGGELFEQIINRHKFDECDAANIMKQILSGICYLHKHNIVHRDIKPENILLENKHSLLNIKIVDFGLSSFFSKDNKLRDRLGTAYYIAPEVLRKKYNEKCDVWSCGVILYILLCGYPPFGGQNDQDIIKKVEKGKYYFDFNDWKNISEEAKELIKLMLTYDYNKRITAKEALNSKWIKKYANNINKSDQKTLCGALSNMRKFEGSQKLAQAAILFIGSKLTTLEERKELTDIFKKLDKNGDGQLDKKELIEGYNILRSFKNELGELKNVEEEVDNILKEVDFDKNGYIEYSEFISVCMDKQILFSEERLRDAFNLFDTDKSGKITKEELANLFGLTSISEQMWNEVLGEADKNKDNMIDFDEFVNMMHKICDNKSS
Sequence of 1-phosphatidylinositol 3-phosphate 5-kinase (Homo sapiens) (Q9Y2I7 whole entry): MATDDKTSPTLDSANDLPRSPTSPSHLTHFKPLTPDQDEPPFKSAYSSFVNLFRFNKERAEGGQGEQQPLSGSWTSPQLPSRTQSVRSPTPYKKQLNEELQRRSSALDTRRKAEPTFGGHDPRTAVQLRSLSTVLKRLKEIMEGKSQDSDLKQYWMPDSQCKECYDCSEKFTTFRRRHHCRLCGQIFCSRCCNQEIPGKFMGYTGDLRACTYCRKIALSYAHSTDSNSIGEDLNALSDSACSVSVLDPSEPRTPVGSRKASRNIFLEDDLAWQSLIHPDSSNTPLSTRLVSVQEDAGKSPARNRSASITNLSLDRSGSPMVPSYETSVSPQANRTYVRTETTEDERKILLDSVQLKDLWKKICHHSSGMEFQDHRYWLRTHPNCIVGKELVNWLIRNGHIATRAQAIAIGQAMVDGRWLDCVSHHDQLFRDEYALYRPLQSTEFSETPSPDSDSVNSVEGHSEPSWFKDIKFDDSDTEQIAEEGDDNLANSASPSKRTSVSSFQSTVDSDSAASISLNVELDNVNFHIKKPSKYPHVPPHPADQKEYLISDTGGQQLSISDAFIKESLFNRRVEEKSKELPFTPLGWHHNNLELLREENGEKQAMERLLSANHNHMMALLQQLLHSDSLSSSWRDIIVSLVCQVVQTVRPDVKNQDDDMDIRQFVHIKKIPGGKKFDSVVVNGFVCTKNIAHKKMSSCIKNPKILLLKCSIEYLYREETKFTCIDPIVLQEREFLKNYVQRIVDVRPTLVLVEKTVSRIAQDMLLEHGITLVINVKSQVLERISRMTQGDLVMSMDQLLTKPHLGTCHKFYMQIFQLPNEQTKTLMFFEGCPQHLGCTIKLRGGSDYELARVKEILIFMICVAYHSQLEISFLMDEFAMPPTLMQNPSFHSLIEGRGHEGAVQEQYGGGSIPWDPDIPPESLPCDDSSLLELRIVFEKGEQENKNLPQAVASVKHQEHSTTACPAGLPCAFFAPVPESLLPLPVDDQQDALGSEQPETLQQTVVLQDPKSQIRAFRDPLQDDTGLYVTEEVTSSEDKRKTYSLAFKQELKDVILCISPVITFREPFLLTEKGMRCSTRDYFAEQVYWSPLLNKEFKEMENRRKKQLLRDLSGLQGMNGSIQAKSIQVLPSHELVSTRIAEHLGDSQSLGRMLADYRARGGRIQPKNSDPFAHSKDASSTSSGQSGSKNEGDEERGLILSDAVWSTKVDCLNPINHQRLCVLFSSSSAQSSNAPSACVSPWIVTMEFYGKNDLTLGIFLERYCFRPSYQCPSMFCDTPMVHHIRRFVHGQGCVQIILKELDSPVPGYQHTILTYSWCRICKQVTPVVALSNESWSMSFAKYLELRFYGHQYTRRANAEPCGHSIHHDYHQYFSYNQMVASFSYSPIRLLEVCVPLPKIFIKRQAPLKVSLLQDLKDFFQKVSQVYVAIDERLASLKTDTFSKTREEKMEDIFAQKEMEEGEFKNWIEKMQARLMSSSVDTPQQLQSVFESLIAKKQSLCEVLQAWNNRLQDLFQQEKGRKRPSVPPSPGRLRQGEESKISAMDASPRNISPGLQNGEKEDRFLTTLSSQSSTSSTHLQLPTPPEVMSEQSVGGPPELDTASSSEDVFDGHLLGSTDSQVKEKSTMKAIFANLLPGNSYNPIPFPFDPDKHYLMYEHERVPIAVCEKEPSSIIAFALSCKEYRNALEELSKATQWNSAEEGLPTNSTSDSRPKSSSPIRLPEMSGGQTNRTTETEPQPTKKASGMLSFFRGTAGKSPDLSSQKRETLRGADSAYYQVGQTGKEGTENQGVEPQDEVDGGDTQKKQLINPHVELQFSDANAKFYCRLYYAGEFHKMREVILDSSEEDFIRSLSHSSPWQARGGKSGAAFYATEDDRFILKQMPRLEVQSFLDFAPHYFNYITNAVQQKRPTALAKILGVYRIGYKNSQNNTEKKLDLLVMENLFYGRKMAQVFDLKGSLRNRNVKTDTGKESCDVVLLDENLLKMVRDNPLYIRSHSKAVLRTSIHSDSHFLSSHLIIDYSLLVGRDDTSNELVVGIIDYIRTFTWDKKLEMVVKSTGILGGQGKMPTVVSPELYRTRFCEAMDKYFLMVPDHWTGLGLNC
Sequence of Inhibitor of nuclear factor kappa-B kinase subunit beta (Homo sapiens) (O14920 whole entry): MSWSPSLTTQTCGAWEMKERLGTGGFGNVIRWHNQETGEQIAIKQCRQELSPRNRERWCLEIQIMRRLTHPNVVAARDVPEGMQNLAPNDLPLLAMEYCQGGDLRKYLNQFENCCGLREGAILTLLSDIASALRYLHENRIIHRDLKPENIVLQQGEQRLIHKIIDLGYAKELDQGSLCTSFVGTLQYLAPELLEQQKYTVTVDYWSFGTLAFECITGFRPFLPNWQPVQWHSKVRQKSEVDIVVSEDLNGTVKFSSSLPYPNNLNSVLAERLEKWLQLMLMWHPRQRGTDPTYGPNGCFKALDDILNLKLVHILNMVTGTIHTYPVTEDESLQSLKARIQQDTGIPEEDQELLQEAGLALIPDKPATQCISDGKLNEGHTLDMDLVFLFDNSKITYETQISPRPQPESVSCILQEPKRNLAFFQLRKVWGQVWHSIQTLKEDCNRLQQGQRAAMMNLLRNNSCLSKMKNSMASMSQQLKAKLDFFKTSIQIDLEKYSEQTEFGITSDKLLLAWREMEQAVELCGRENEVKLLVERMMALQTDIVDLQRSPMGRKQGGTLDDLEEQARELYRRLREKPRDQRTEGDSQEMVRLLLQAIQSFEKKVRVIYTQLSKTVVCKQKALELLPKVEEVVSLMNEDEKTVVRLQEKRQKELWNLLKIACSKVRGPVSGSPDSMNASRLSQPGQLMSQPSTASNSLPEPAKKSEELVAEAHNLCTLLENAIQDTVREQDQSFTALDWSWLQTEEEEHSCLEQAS

As for `O=c1nc(-c2ccccn2)sc2ccccc12` [BTZO-1], the inhibition (in general, the change of the read-out against control, counted positive when it falls) is -5.27% in assay [1]; -1.33% in assay [6]; 12.5% in [10]; 14% in assay [11]; 6.23% in assay [16]. Also, the residual activity is 100% in assay [2]; 85% in assay [4]; 77% in assay [5]; 100% in assay [9]; 100% in assay [12]; 100% in assay [14]. The Kd (commonly the concentration at which binding is half-saturated) was 68.6 nM (active) in assay [3], > 10000 nM (not active) in assay [8] and 157 nM (active) in assay [15]. Besides, the MEC1.5 in [7] was 16 nM. Also, the Ki (commonly a measure of affinity in units of concentration, obtained from inhibition or displacement) in assay [13] amounted to 934 nM.
Take `O=C1NC(c2ccccn2)Sc2ccccc21` (stereo not given) [BTZO-4]: the inhibition was -4.7% in assay [17]; -5.1% in assay [18]; -4.84% in [19]; 49.9% in [20]; 1.93% in assay [21]; -9.97% in [24]. For the same molecule, the residual activity in assay [2] is 100%; in assay [4] it was 88%; in assay [5], 57%; in [9], 100%; in assay [12], 100%; in [14], 100%. The Kd in assay [22] and in [23] was > 10000 nM (not active) in each case.

The record behind these values is ChEMBL document CHEMBL4507329, “Data for DCP probe BTZO-1” (2021).
